The source of these data is ChEMBL document CHEMBL4699425, “Active learning effectively identifies a minimal set of maximally informative and asymptotically performant cytotoxic structure-activity patterns in NCI-60 cell lines” (2020).

Active and inactive are the calls of the source. The rule behind the calls is not given here.

The test relates to SK-MEL-2. Kind of test: Growth inhibition of human SK-MEL-2 cells. In kind it is functional.

In the case of `CC1C(c2ccccc2O)c2cc3c(cc2OC1N1CCCC1)OCO3` (stereo unspecified), the “growth inhibition (GI)” value is “inactive”.

As to `COc1cc(C2c3cc4c(cc3OC(N3CCCC3)C2C)OCO4)cc(OC)c1OC` (stereo unspecified), the “growth inhibition (GI)” value was “Active”.

Consider `O=C1c2cccnc2-c2nc(-c3ccccn3)cc3c2c1nc1ccccc13`, for which the GI50 reads like this: (read-out: GI50) 0.874 µM; (read-out: pGI50 (converted)) 0.875 µM.

For the compound `Cc1ccc(-c2cc3c4c(nc5ccccc53)C(=O)c3cccnc3-c4n2)cc1`, the GI50 reads like this: (read-out: GI50) 15 µM; (read-out: pGI50 (converted)) 15 µM.
